As usually defined, the melting point is the temperature, or range, at which the solid turns liquid. The compound `CCOC(=O)Nc1ccc(C(=O)CCC(=O)O)cc1` yielded a melting point of 206 to 207 °C.
Turning to `Cc1ccc(C(=O)OCCOC(=O)NC2(C(=O)O)CC2)cc1`, the melting point lay within 178 to 182 °C.
In the case of `CC(C)(C)C(=O)Nc1ccncc1`, the melting point lay in the range of 137 to 140 °C.
As to `N#Cc1cnn2c1N(C(=O)CN1CCN(C(=O)Nc3ccc(Cl)c(C(F)(F)F)c3)CC1)CC=C2c1cccc(C(F)(F)F)c1`, the melting point lay within 214 to 216 °C.
The result for `O=C(O)Cc1c(C(=O)c2ccc(Cl)cc2)[nH]c2ccc(F)cc12` reads 233 to 238 °C.
The compound `C=C(C(=O)c1ccc(OC)c(Cl)c1Cl)c1ccccc1` returned a melting point of 83.5 to 86 °C.
The result for `CCCCc1nn(-c2ccccc2Cl)c(=O)n1Cc1ccc(-c2ccccc2S(N)(=O)=O)cc1` reads 140 to 142 °C.
The result for `COc1cc2c(Nc3ccc(C)c(O)c3)ncnc2cc1OCc1cccnc1` reads 258 to 259 °C.
The compound `CC(C)(C)C1CC=C(c2cc(C(F)(F)F)cc3[nH]c(N4CCN(c5ncccc5C(F)(F)F)CC4)nc23)CC1` (configuration not stated) had a melting point of 96 to 97.7 °C.
`N#Cc1cc(-c2cc(C(F)F)c3c(-c4cccnc4)n[nH]c3n2)ccc1N` came in with a melting point of 296 °C.
Take `COc1ccccc1N1CCN(C(=O)c2ccccc2C(c2ccc(OC(C)C)cc2)c2ccc(OC(C)C)cc2)CC1`: the melting point was in the range of 120 to 121 °C.
The compound `CNC1=NS(=O)(=O)N=C1NCCSCc1csc(CN(C)C)n1` yielded a melting point of 144 to 148 °C.
Take `Cn1nnnc1-c1cnc2ccc(F)cc2c1O`: the melting point was more than 300 °C.
Take `CCOCn1c(N(C(C)=O)c2cc(C)cc(C)c2)c(CC)c(=O)[nH]c1=O`: the melting point was in the range of 182 to 183 °C.
Turning to `O=c1[nH]c(NCCSCc2cccs2)ncc1Cc1cccnc1`, the melting point fell in the range of 145 to 148 °C.
Then `O=S(=O)(NC1CCOCC1)c1ccc(Cl)cc1`, with 127 to 129 °C.
The result for `Clc1c(-c2ccc(OCc3ccccc3)cc2)[nH]c2ccc(OCc3ccccc3)cc12` reads 157 to 160 °C.
In turn, `CCc1[nH]n(C2CCCC2)c2nc(Cc3cccc(OC)c3)nc(=O)c1-2` had a melting point of 148 to 150 °C.
Then `CCN(C(=O)Nc1ccccc1CCc1cc(C(C)(C)C)c(O)c(C(C)(C)C)c1)C1CCN(Cc2ccccc2)CC1`, with 149 to 151 °C; and `CC(=O)Oc1ccc(-c2[nH]c3ccc(Cl)cc3c2-c2ccc(S(C)(=O)=O)cc2)cc1`, with 248 to 250 °C.
`CCC(C(=O)OC1C=CC=CO1)C(=O)OC1C=CC=CO1` (configuration not stated) yielded a melting point of 90 to 92 °C.
Then `CCCCOC(=O)C(NC(=O)OCc1ccccc1)c1ccc(O)cc1` (configuration not stated), with 143 to 144 °C.
In the case of `CC(=CC(=O)c1cccnc1)N(C)C`, the melting point lay in the range of 62 to 64 °C.
Regarding `Nc1nc(F)nc2c1ncn2C1OC(COCc2ccccc2)C(OCc2ccccc2)C1OCc1ccccc1` (configuration not stated), the melting point lay within 157 to 159 °C.
Then `CCN(CCNC(=O)c1n[nH]cc1NC(=O)c1cccc(C)n1)c1cccc(C)c1`, with 203 to 205 °C; and `O=C(OCc1ccccc1[N+](=O)[O-])C(F)(F)C(F)(F)C(F)(F)C(F)(F)C(F)(F)C(F)(F)C(F)(F)F`, with 34 to 35 °C; and `O=C(O)c1ccc(Cl)c(Sc2ccccc2[N+](=O)[O-])c1`, with 261 to 262 °C.
For the compound `COc1ccc2cc(C=C(C)C(=O)NCCN(O)C(N)=O)ccc2c1`, the melting point was in the range of 174 to 176 °C.
Then `COC(=O)C1=CC(=O)C(C)(c2ccccc2)O1` (configuration not stated), with 60 to 62 °C; and `O=C(CN1CCN(C(=O)c2cc(C(F)(F)F)cc(C(F)(F)F)c2)[C@H](Cc2c[nH]c3ccccc23)C1)c1ccc(F)cc1`, with 95 to 105 °C.
The result for `CCCc1cc(Cl)c2oc(Cc3ccc(OC(C)=O)cc3)c(C)c2c1OC(C)=O` reads 119 to 120 °C.
On to `CCCCCCCCCC(=O)N(O)CCCCCC`, for which the melting point is 37 °C.
Then `CCCCc1nn(-c2cc(N)ccc2Cl)c(=O)n1Cc1ccc(-c2ccccc2S(=O)(=O)NC(=O)OC(C)(C)C)cc1`, with 185 to 188 °C; and `O=C1NCC(c2ccc(Cl)cc2)C1c1ccccc1` (configuration not stated), with 130 to 135 °C; and `NC(=O)c1cccc(NC(=O)C(CS)Cc2ccccc2)c1` (configuration not stated), with 159 to 164 °C.
On to `Nc1ccc(C(=O)CCc2ccc(Cl)c(Cl)c2)cc1`, for which the melting point lay in the range of 127 to 129 °C.
In turn, `CCCc1nc(C)cn1-c1cc(F)ccc1[N+](=O)[O-]` showed a melting point of 36 to 39 °C.
Then `COCCc1nc2c(N)nc3cc(-c4cncc(CO)c4)ccc3c2n1CC(C)C`, with 202 to 204 °C; and `COC(=S)N(C)C[C@@H]1CN(c2cc(F)c(N3CC(=O)N(C)C3)c(F)c2)C(=O)O1`, with 130 °C.
Then `N#Cc1cc(N)c(N)cc1C#N`, with 262 to 264 °C.
Consider `CNc1cc(N2CCc3ccccc32)cc(C)n1`, for which the melting point was 174 to 175 °C.
The compound `NCCCNc1cccc2c1C(=O)c1ccccc1C2=O` registered a melting point of 106 to 108 °C.
Then `Cc1cc(-c2nnc3c4ccccc4c(OCc4ncc[nH]4)nn23)no1`, with 188 to 189 °C; and `Cc1cc(C(=O)O)ccc1Sc1ccc2c(c1)C(C)(C)CCC2(C)C`, with 195 to 196 °C.
Then `Cc1cccc2c1C(=O)c1cc(CC(=O)O)ccc1OC2`, with 183 to 185 °C; and `COc1ccc(CCc2ccncc2NC(=O)c2ccccc2)cc1OC1CCCC1`, with 50 to 51 °C.
`CC(=O)c1ccc2c(c1)NC(NC(C)C)=NS2(=O)=O` showed a melting point of 305 to 308 °C.
For `CCOC(=O)c1cnn2c(-c3ccccc3)ccnc12`, the melting point lay within 129 to 130 °C.
Then `CC(OC(N)=O)c1cc2c3ccccc3n(C)c(=O)n2n1` (configuration not stated), with 216 to 221 °C; and `CC(C)(C)OC(=O)c1cc(O[C@H]2CC[C@H](NC(=O)Nc3ccc(Cl)c(C(F)(F)F)c3)CC2)ccn1`, with 101 to 117 °C.
For `CN(CCOc1ccc(CON=C(CCC(=O)O)c2ccccc2)cc1)c1ncccn1`, the melting point lay in the range of 72 to 73 °C.
Take `CCCC(O)C1(C)OC(C)=C(O)C1=O` (configuration not stated): the melting point was 103 to 104 °C.
Turning to `CC(C)N1CC2CC(C1)CN(S(=O)(=O)c1ccccc1)C2`, the melting point fell in the range of 85.5 to 86.5 °C.
`CCCc1cc(O)ccc1-c1noc2cc(O)ccc12`: the melting point is 189 to 191 °C.
The result for `COC(=O)C(C)Oc1noc2cc(Cl)c([N+](=O)[O-])cc12` (configuration not stated) reads 98 to 101 °C.
The result for `CCc1nsc(NC(=O)C(C)c2ccc3oc(-c4c(Cl)cccc4Cl)nc3c2)c1Cl` (configuration not stated) reads 180 to 183 °C.
Then `CS(=O)(=O)c1ccc(-c2c(Br)c3cccccc-3c2-c2ccccc2)cc1`, with 172 to 173 °C.
In turn, `COC(=O)C=Cc1cc(C)n(CCNC(C)=O)c1C` gave a melting point of 144 to 145 °C.
The result for `Cc1nc2ccc(O)cc2c(=O)n1C1CCC(=O)NC1=O` (configuration not stated) reads 315 to 317 °C.
The result for `Cc1ccc(S(=O)(=O)OC2CCc3[nH]c4ccccc4c3C2)cc1` (configuration not stated) reads 148 to 151 °C; that for `Cc1c(C(=O)Nc2ccc(N3CCCC3)c(C#N)c2)cnn1-c1ccc(F)cc1`, 185 °C; that for `O=C(Nc1ccc(Cl)c(C(F)(F)F)c1)c1ccccc1NCc1ccc(=O)[nH]c1`, 231 °C.

Source of the values: a melting point compilation (Tetko et al.; mined from patent text by program, amines drawn as free bases though some values may be those of a salt).
